Measured values published in patent publication US20060141054A1, “Metal coordinated compositions” (priority 2004, published 2006).
Blank lines part the entries; values can stand above or below the molecule they belong to.

How the values were obtained:
[1] = Log D at pH 7.4 (octanol/water); assay type: physicochemical
[2] = water, 0.15 m kcl
[3] = Equilibrium/stability constants of magnesium complexes; assay type: physicochemical; settings: estimated from literature precedents of similar compounds
physchem = settings: water, 0.15 m kcl
[4] = Equilibrium/stability constants of zinc complexes; assay type: physicochemical; settings: approximated

Molecule: N[C@@H](Cc1cc(I)c(Oc2ccc(O)c(I)c2)c(I)c1)C(=O)[O-].N[C@@H](Cc1cc(I)c(Oc2ccc(O)c(I)c2)c(I)c1)C(=O)[O-].[Zn+2] [Bis(triiodothyroninato)zinc]
Log D7.4 [1]: 3.43 | pKa (first listed) [2]: 6.66 | pKa (second listed) [2]: 6.42

log Keq (estimated) [3]: 1.6
Molecule: Bis(acycloguanosinato)magnesium

Molecule: N[C@@H](Cc1cc(I)c(Oc2ccc(O)c(I)c2)c(I)c1)C(=O)O [Triiodothyronine]
logD ([1]; Method Potentiometric, read-out: Log D7.4): 2.8 | pKa (physchem; pKa (first listed)): 8.41 | pKa (physchem; pKa (second listed)): 8.07

cumulative binding constant, β2 [4]: 8.5
Molecule: N[C@@H](Cc1ccccc1)C(=O)O.[Zn] [phenylalanine-zinc]
